Measured values reported in patent publication US8779161B2, “Asenapine maleate” (Dr. Reddy's Laboratories Limited, priority 2010, dated 2014).

What was measured:
[1] = Particle size distribution d(10), d(50), d(90); type: physicochemical
Excerpt: For example, particle size distributions of asenapine maleate particles may be measured using microscopy or light scattering equipment, such as, for example, a Malvern Master Size 2000 from Malvern Instruments Limited, Malvern, Worcestershire, United Kingdom. The particle size distributions can be expressed, for example, in terms of d(90), d(50), and d(10) values, where the values (e.g., expressed in μm) are the maximum sizes for 90, 50, and 10 percent of the particles, respectively.
Polymorphs are different solids sharing the same molecular formula, yet having distinct physical properties when compared to other polymorphs of the same formula. As used throughout the disclosure, the D(10), D(50), and D(90) values are useful ways for indicating a particle size distribution. D(90) refers to at least 90 volume percent of the particles having a size smaller than the said value. Likewise, D(10) refers to 10 volume percent of the particles having a size smaller than the said value. D(50) refers to 50 volume percent of the particles having a size smaller than the said value. Methods for determining D(10), D(50), and D(90) include laser diffraction, such as using equipment from Malvern Instruments Ltd. of Malvern, Worcestershire, United Kingdom. HPLC is High Pressure Liquid Chromatography.

[2] = starting with the monoclinic form; WO 2006/106135 A1, Examples 9 and 10 therein; cited from earlier work
[3] = Micronization of asenapine maleate monoclinic form: polymorphic form by PXRD after micronizing; type: physicochemical; settings: Midas Micronizer 50, nitrogen carrier gas, 4-6 Kg/cm^2; compared with reference pattern of monoclinic polymorph
Description: All PXRD data reported herein are obtained using a Bruker AXS D8 Advance Powder X-ray Diffractometer or a PANalytical X-ray Diffractometer, using copper Kα radiation. Generally, a diffraction angle (2θ) in powder X-ray diffractometry may have permissible variation in the range of ±0.2°. Although the intensities of peaks in the x-ray powder diffraction patterns of different batches of a compound may vary slightly, the peaks and the peak locations are characteristic for a specific polymorphic form. The relative intensities of the PXRD peaks can vary depending on the sample preparation technique, crystal size distribution, various filters used, the sample mounting procedure, and the particular instrument employed. Moreover, instrument variation and other factors can affect the 2-theta values. Therefore, the term “substantially” in the context of PXRD is meant to encompass that peak assignments can vary by plus or minus about 0.2° 2-theta.

[4] = before micronization (as isolated)
[5] = after micronization, Midas Micronizer 50, nitrogen 4-6 Kg/cm^2

| SMILES | particle size distribution d(10) [1, 4] [μm] | particle size distribution d(50) [1, 4] [μm] | particle size distribution d(90) [1, 4] [μm] | particle size distribution d(10) [1, 5] [μm] | particle size distribution d(50) [1, 5] [μm] | particle size distribution d(90) [1, 5] [μm] | polymorphic form obtained after micronization [2] | PXRD Pattern after Micronizing [3] |
| --- | --- | --- | --- | --- | --- | --- | --- | --- |
| CN1C[C@H]2c3ccccc3Oc3ccc(Cl)cc3[C@@H]2C1.O=C(O)/C=C\C(=O)O [Example 15, Asenapine Maleate Monoclinic Form] | 4.38 | 14.42 | 33.11 |  |  |  |  |  |
| CN1C[C@H]2c3ccccc3Oc3ccc(Cl)cc3[C@@H]2C1.O=C(O)/C=C\C(=O)O [Example 26, Asenapine Maleate] |  |  | 88 |  |  |  |  |  |
| CN1C[C@H]2c3ccccc3Oc3ccc(Cl)cc3[C@@H]2C1.O=C(O)/C=C\C(=O)O [form H, asenapine maleate] |  |  |  |  |  |  | Either the monoclinic form, or the orthorhombic form or a mixture of polymorphs was obtained |  |

Now from value to compound, other results behind:

| particle size distribution d(10) [1, 4] [μm] | particle size distribution d(50) [1, 4] [μm] | particle size distribution d(90) [1, 4] [μm] | particle size distribution d(10) [1, 5] [μm] | particle size distribution d(50) [1, 5] [μm] | particle size distribution d(90) [1, 5] [μm] | SMILES | polymorphic form obtained after micronization [2] | PXRD Pattern after Micronizing [3] |
| --- | --- | --- | --- | --- | --- | --- | --- | --- |
| 5.671 | 24.077 | 58.716 | 0.994 | 5.516 | 12.715 | CN1C[C@H]2c3ccccc3Oc3ccc(Cl)cc3[C@@H]2C1.O=C(O)/C=C\C(=O)O [Example 11, Asenapine Maleate Monoclinic Form] |  |  |
| 6.269 | 35.229 | 80.698 | 0.887 | 4.632 | 10.678 | CN1C[C@H]2c3ccccc3Oc3ccc(Cl)cc3[C@@H]2C1.O=C(O)/C=C\C(=O)O [Example 13, Asenapine Maleate] |  | complies with reference pattern of monoclinic polymorph |
